Laboratory results reported in patent US8877927B2 (Grunenthal GmbH, priority 2006, dated 2014).

Assays:
[1] = Plasma incubations (rat plasma stability); format: in vitro ADME; conditions: 25 μM, 37° C., percent remaining at 1 hour
Method: (§1) Human and rat plasma were purchased from Innovative Research Inc. (Southfield. Mich., USA). […] Aliquots were removed at 2 and 60 minutes and quenched with an equal volume of cold acetonitrile. After mixing vigorously, the precipitated protein matter was removed by filtration (Multiscreen Solvinert filter plates, Millipore, Bedford, Mass., USA) and the filtrate analysed by reverse phase HPLC with mass spectrometric detection, using single ion monitoring of the [M+H]^+ species. Metabolic turnover was determined by comparison of peak areas from the ion chromatograms of the parent compound at 2 and 60 minutes and expressed as percent remaining at 1 hour.

[2] = Rat pharmacokinetics (oral bioavailability, clearance); format: in vivo; conditions: for reduction in clearance: compared to prior art compound 42; for clearance / bioavailability: in vivo; for bioavailability: oral, read-out: Rat Oral Bioavailability (% F)
[3] = Liver microsomal incubations (HLM); format: in vitro ADME; conditions: human liver microsomes 0.5 mg/mL, 25 μM, NADPH, percent remaining at 1 hour
Method: (§2) Human and rat liver microsomes were purchased from BD Gentest (Woburn, Mass., USA) and β-nicotinamide adenine dinucleotide 2′-phosphate reduced tetrasodium salt (NADPH) was purchased from Sigma-Aldrich (Poole, Dorset, UK). All liver microsome incubations were carried out in 50 mM potassium phosphate buffer at pH 7.4, with a final microsomal protein concentration of 0.5 mg/mL. […] In brief, compounds were added to the incubation buffer along with the liver microsomes and incubated at 37° C. for 10 minutes. The reaction was then initiated by the addition of NADPH, previously dissolved in incubation buffer, to give a final concentration of 1 mM and re-incubated at 37° C. Aliquots were removed at 2 and 60 minutes and quenched with an equal volume of cold acetonitrile. After mixing vigorously, the precipitated protein matter was removed by filtration (Multiscreen Solvinert filter plates, Millipore, Bedford, Mass., USA) and the filtrate analysed by reverse phase HPLC with mass spectrometric detection, using single ion monitoring of the [M+H]^+ species. Metabolic turnover was determined by comparison of peak areas from the ion chromatograms of the parent compound at 2 and 60 minutes and expressed as percent remaining at 1 hour.

[4] = biological target: T1, Human recombinant cathepsin K (Homo sapiens, UniProt P43235); test: In vitro cathepsin K Ki inhibition measurement; format: biochemical; conditions: for Ki: recombinant human cathepsin K, read-out: In vitro Ki (nM) vs Cath K
T1 construct: purchased B. Turk, Josef, Stefan Institute, Ljubljana, Slovenia
T1 sequence (P43235 115-329): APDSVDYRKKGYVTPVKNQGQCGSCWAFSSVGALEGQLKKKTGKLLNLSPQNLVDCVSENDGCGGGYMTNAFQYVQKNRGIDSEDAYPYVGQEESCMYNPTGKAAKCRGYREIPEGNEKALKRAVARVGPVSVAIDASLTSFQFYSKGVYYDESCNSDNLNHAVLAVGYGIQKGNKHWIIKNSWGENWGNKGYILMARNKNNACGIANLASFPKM
Method: Stock solutions of substrate or inhibitor were made up to 10 mM in 100% dimethylsulfoxide (DMSO) (Rathbums, Glasgow, U.K.) and diluted as appropriately required. In all cases the DMSO concentration in the assays was maintained at less than 1% (vol./vol.). The equilibrium inhibition constants (Ki^ss) for each compound were measured under steady-state conditions monitoring enzyme activity as a function of inhibitor concentration. The values were calculated on the assumption of pure competitive behaviour (Cornish-Bowden, A. Fundamentals of enzyme kinetics Portland Press; 1995, 93-128.). Human recombinant cathepsin K (0.25 nM final; B. Turk, Josef, Stefan Institute, Ljubljana, Slovenia), was routinely assayed in 100 mM sodium acetate; pH 5.5 containing 1 mM EDTA, 10 mM L-cysteine and 1.8 μM Z-Leu-Arg-AMC ([S]═KM).
The apparent inhibition constant (Ki) for each compound was determined on the basis that inhibition was reversible and occurred by a pure-competitive mechanism. The Ki values were calculated, from the dependence of enzyme activity as a function of inhibitor concentration, by direct regression analysis (Prism v 3.02) using Equation 2 (Cornish-Bowden, A., 1995.).
In situations where the apparent dissociation constant (Ki^app) approached the enzyme concentrations, the Ki^app values were calculated using a quadratic solution in the form described by Equation 3 (Morrison, J. F. Trends Biochem. Sci., 7, 102-105, 1982; Morrison, J. F. Biochim. Biophys. Acta, 185, 269-286, 1969; Stone, S. R. and Hofsteenge, J. Biochemistry, 25, 4622-4628, 1986).
In Equation 3 ‘vi’ is the observed residual activity, ‘F’ is the difference between the maximum activity (i.e. in the absence of inhibitor) and minimum enzyme activity, ‘Eo’ is the total enzyme concentration, ‘Ki^app’ is the apparent dissociation constant and ‘Io’ is the inhibitor concentration. Curves were fitted by non-linear regression analysis (Prism) using a fixed value for the enzyme concentration. Equation 4 was used to account for the substrate kinetics, where ‘Ki’ is the inhibition constant, ‘[So]’ is the initial substrate concentration and ‘KM^app’ is the apparent macroscopic binding (Michaelis) constant for the substrate (Morrison, 1982).

[5] = Plasma incubations (human plasma stability); format: in vitro ADME; conditions: 25 μM, 37° C., percent remaining at 1 hour
Method: as §1

[6] = Liver microsomal incubations (RLM); format: in vitro ADME; conditions: rat liver microsomes 0.5 mg/mL, 25 μM, NADPH, percent remaining at 1 hour
Method: as §2

[7] = compared to prior art compound 42
[8] = compared to prior art compound 11

Structure (SMILES) | Rat Plasma Stability % rem. @ 1 h [1] | reduction in clearance [2] | clearance [2] | bioavailability [2] | HLM % rem. @ 1 hr [3] | Ki [4] | Human Plasma Stability % rem. @ 1 h [5] | RLM % rem. @ 1 hr [6] | improvement in in vitro potency against recombinant human cathepsin K [4, 7] | other results
CN1CCN(c2ccc(C(=O)N[C@H](C(=O)N3CC(F)[C@H]4OCC(=O)[C@H]43)C3CCCCC3)cc2)CC1 (stereo in doubt) [Example 2, N—((S)-1-cyclohexyl-2-((3aS,6S,6aS)-6-fluoro-3-oxodihydro-2H-furo[3,2-b]pyrrol-4(5H,6H,6aH)-yl)-2-oxoethyl)-4-(4-methylpiperazin-1-yl)benzamide] | 100% | 68% | 25 mL/min/kg | 80% | 98.2% | 14.9 nM | 93.1% | 73.3% | – | –
CN1CCN(c2ccc(C(=O)N[C@H](C(=O)N3CC(Cl)[C@H]4OCC(=O)[C@H]43)C3CCCC3)cc2)CC1 (stereo in doubt) [Example 5, N—((S)-2-((3aS,6S,6aS)-6-chloro-3-oxodihydro-2H-furo[3,2-b]pyrrol-4(5H,6H,6aH)-yl)-1-cyclopentyl-2-oxoethyl)-4-(4-methylpiperazin-1-yl)benzamide] | 96.6% | – | 107 mL/min/kg | 37% | 85.6% | 0.5 nM | 97.4% | 81.3% | 17 fold | increase in in vitro potency against recombinant human cathepsin K ([4]; compared to the direct (S)-leucine analogue (14)): 3.5 fold
CN1CCN(c2ccc(C(=O)N[C@H](C(=O)N3C[C@H](F)[C@H]4OCC(=O)[C@H]43)C3CCCC3)cc2)CC1 [Example 1, N—((S)-1-cyclopentyl-2-((3aS,6S,6aS)-6-fluoro-3-oxodihydro-2H-furo[3,2-b]pyrrol-4(5H,6H,6aH)-yl)-2-oxoethyl)-4-(4-methylpiperazin-1-yl)benzamide] | 95.9% | 71% | 23 mL/min/kg | 88% | 100% | 1.7 nM | 96.4% | 82% | 5 fold | –
CN1CCN(c2nc(-c3ccc(C(=O)N[C@H](C(=O)N4C[C@@H](F)[C@H]5OCC(=O)[C@H]54)C4CCCC4)cc3)cs2)CC1 [Example 7] | 88% | – | – | – | 74% | 0.9 nM | 96.3% | 3.5% | – | –
CN1CCN(c2nc(-c3ccc(C(=O)N[C@H](C(=O)N4C[C@@H](Cl)[C@H]5OCC(=O)[C@H]54)C4CCCC4)cc3)cs2)CC1 [Example 8] | 85.1% | – | – | – | 54.1% | 0.3 nM | 96% | 7.7% | – | –
CC(C)C[C@H](NC(=O)c1ccc(-c2csc(N3CCN(C)CC3)n2)cc1)C(=O)N1C[C@@H](F)[C@H]2OCC(=O)[C@H]21 [prior art compound 8.19] | 90.2% | – | – | – | 66.7% | 1.5 nM | 70.2% | 4.4% | – | improvement in in vitro potency against recombinant human cathepsin K [4, 8]: only minor improvement
CC(C)C[C@H](NC(=O)c1ccc(N2CCN(C)CC2)cc1)C(=O)N1C[C@@H](F)[C@H]2OCC(=O)[C@H]21 [prior art compound 10] | 94.2% | no effect | 81 mL/min/kg | 40% | 96.8% | 3.6 nM | 100% | 93.6% | 2.4 fold | –
CC(C)C[C@H](NC(=O)c1ccc(-c2csc(N3CCN(C)CC3)n2)cc1)C(=O)N1CC[C@H]2OCC(=O)[C@H]21 [prior art compound 11] | 88.6% | – | – | – | 82.6% | – | 92.6% | 4.8% | – | –
CN1CCN(c2ccc(C(=O)N[C@H](C(=O)N3CC[C@H]4OCC(=O)[C@H]43)C3CCCC3)cc2)CC1 [prior art compound 12] | 94.1% | 29% | 56 mL/min/kg | 45% | 91.2% | 1.8 nM | 97.2% | 93.9% | 5 fold | –
CN1CCN(c2nc(-c3ccc(C(=O)N[C@H](C(=O)N4CC[C@H]5OCC(=O)[C@H]54)C4CCCC4)cc3)cs2)CC1 [prior art compound 13] | 93% | – | – | – | 79.4% | – | 82.5% | 4.3% | – | improvement in in vitro potency against recombinant human cathepsin K [4, 8]: only minor improvement
CC(C)C[C@H](NC(=O)c1ccc(N2CCN(C)CC2)cc1)C(=O)N1C[C@@H](Cl)[C@H]2OCC(=O)[C@H]21 [prior art compound 14] | – | – | – | – | – | 1.8 nM | – | – | – | Rat Plasma Stability % rem. @ 1 h ([1]; listed as drawing 58): 92.8%; HLM % rem. @ 1 hr ([3]; listed as drawing 58): 84.8%; Human Plasma Stability % rem. @ 1 h ([5]; listed as drawing 58): 85.5%; RLM % rem. @ 1 hr ([6]; listed as drawing 58): 85.5%
CC(C)C[C@H](NC(=O)c1ccc(N2CCN(C)CC2)cc1)C(=O)N1C[C@@H](Cl)[C@H]2OCC(=O)[C@H]21 [prior art compound 15] | – | – | – | – | – | 3.7 nM | – | – | – | Rat Plasma Stability % rem. @ 1 h ([1]; listed as drawing 59): 88.9%; HLM % rem. @ 1 hr ([3]; listed as drawing 59): 80.3%; Human Plasma Stability % rem. @ 1 h ([5]; listed as drawing 59): 90.3%; RLM % rem. @ 1 hr ([6]; listed as drawing 59): 81.6%
CC(C)C[C@H](NC(=O)c1ccc(N2CCN(C)CC2)cc1)C(=O)N1CC[C@H]2OCC(=O)[C@H]21 [prior art compound 42] | 84.2% | – | 79 mL/min/kg | 31.5% | 95% | – | 95% | 76.6% | – | –
